Results published in ChEMBL document CHEMBL5096210, “Discovery of Betulinic Acid Derivatives as Potent Intestinal Farnesoid X Receptor Antagonists to Ameliorate Nonalcoholic Steatohepatitis” (J Med Chem, 2022).
Calls of active or inactive are those of the source. The rule behind the calls is not given here.

Experiments:
[1] = target: T1, Bile acid receptor (Mus musculus) (UniProt Q60641); test: In vivo antagonist activity against FXR in mouse assessed as reduction in Fxr level in presence of GW4064; type: functional
T1 sequence (whole entry): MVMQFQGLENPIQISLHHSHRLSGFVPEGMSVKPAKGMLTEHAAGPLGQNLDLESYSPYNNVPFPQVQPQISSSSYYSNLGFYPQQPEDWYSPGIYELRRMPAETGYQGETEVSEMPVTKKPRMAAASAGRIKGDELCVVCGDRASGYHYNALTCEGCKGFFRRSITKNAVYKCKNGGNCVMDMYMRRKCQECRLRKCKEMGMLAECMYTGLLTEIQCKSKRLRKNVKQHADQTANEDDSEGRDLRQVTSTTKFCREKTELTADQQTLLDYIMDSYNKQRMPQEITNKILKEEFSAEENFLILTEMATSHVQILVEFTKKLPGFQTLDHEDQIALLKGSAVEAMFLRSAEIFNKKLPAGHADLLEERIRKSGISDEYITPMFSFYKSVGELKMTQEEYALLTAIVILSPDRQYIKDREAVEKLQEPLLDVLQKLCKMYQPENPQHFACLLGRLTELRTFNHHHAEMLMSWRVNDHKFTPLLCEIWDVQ

[2] = target: T1, Bile acid receptor (Mus musculus); test: In vivo antagonist activity against FXR in mouse assessed as reduction in Fxr level in presence of CDCA; type: functional
[3] = species: Mus musculus; test: Anti-NASH activity in GAN diet-induced […] mouse assessed as suppression of Fgf15 expression; type: functional, organism-based
[4] = species: Mus musculus; test: Anti-NASH activity in GAN diet-induced […] mouse assessed as reduction in N-tcp mRNA level; type: functional, organism-based
[5] = species: Mus musculus; test: Anti-NASH activity in GAN diet-induced […] mouse assessed as reduction in Fabp4 mRNA expression level; type: functional, organism-based
[6] = tested on: Liver; test: Anti-NASH activity in GAN diet-induced […] mouse liver assessed as reduction in hepatocyte ballooning by H and E staining based analysis; type: functional, cell-based
[7] = species: Mus musculus; test: Anti-NASH activity in GAN diet-induced […] mouse assessed as bile acid level in serum; type: functional, organism-based
[8] = tested on: Mus musculus; test: Anti-NASH activity in GAN diet-induced […] mouse assessed as reduction of glycosyl-ceramide level in serum administered orally for 12 weeks; type: functional, organism-based; details: route po
[9] = species: Mus musculus; test: Anti-NASH activity in GAN diet-induced […] mouse assessed as downregulation of Ccl2 level; type: functional, organism-based
[10] = tested on: Mus musculus; test: Anti-NASH activity in HFMCD diet-induced […] mouse assessed as reduction in ALT serum level at 30 mg/kg, po for 4 weeks; type: functional, organism-based
[11] = tested on: Liver; test: Anti-NASH activity in GAN diet-induced […] mouse liver assessed as reduction in macrosteatosis by Oil Red O staining based assay; type: functional
[12] = species: Mus musculus; test: Anti-NASH activity in GAN diet-induced […] mouse assessed as increase in bile acid level in liver; type: functional, organism-based
[13] = Drug distribution in C57BL6 mouse intestine at 10 mg/kg, po administered as single dose measured after 8 hrs; type: ADME, organism-based; details: in vivo
[14] = species: Mus musculus; test: Anti-NASH activity in GAN diet-induced […] mouse assessed as reduction of bile acid pool size in ileum; type: functional, organism-based
[15] = species: Mus musculus; test: Anti-NASH activity in GAN diet-induced […] mouse assessed as reduction in bile acid loss in cecum content; type: functional, organism-based
[16] = tested on: Liver; test: Anti-NASH activity in GAN diet-induced […] mouse liver assessed as reduction in hepatocyte collagen deposition by Sirius red staining based analysis; type: functional, cell-based
[17] = tested on: Mus musculus; test: Anti-NASH activity in GAN-induced mouse assessed as reduction in fasting glucose level at 10 mg/kg measured upto 120 mins; type: functional, organism-based
[18] = species: Mus musculus; test: Anti-NASH activity in GAN diet-induced […] mouse assessed as decrease in cholesterol in liver; type: functional, organism-based
[19] = species: Mus musculus; test: Anti-NASH activity in GAN diet-induced […] mouse assessed as upregulation of Cyp8b1 mRNA expression in liver; type: functional, organism-based
[20] = species: Mus musculus; test: Anti-NASH activity in GAN diet-induced […] mouse assessed as reduction in Fabp3 mRNA expression level; type: functional, organism-based
[21] = Cytotoxicity against HEK293T cells cotransfected with pCMV-Script-hFXR/pGL4.11-hSHP-Luciferase incubated for 24 hrs in presence of GW4064 by celltiter-blue cell viability assay; type: toxicity, cell-based, HEK-293T; details: human
[22] = target: T1, Bile acid receptor (Mus musculus); test: In vivo antagonist activity against FXR in mouse assessed as reduction in Fgf15 level in presence of GW4064; type: functional
[23] = species: Mus musculus; test: Anti-NASH activity in GAN diet-induced […] mouse assessed as reduction in liver weight; type: functional, organism-based
[24] = target: T1, Bile acid receptor (Mus musculus); test: In vivo antagonist activity against FXR in microbeta depleted mouse assessed as reduction in taurocholic acid induced FXR mRNA expression in hepatic signaling at 10 mg/kg, po incubated for 2 to 48 hrs; type: functional, organism-based; details: time 2-48 hrs
[25] = tested on: Mus musculus; test: Anti-NASH activity in GAN diet-induced […] mouse assessed as reduction of ceramide level in serum administered orally for 12 weeks; type: functional, organism-based; details: route po
[26] = species: Mus musculus; test: Anti-NASH activity in GAN diet-induced […] mouse assessed as reduction in hepatic cholesterol level; type: functional, organism-based
[27] = tested on: Liver; test: Anti-NASH activity in GAN diet-induced […] mouse liver assessed as reduction in macrosteatosis by Sirius red staining based analysis; type: functional
[28] = target: T2, Bile acid receptor (Homo sapiens, UniProt Q96RI1); test: Antagonist activity at FXR (unknown origin) expressed in HEK293T cells cotransfected with pCMV-Script-hFXR/pGL4.11-hSHP-Luciferase incubated for 24 hrs in presence of GW4064 by Steady-glo luciferase assay; type: cell-based
T2 sequence (Q96RI1 whole entry): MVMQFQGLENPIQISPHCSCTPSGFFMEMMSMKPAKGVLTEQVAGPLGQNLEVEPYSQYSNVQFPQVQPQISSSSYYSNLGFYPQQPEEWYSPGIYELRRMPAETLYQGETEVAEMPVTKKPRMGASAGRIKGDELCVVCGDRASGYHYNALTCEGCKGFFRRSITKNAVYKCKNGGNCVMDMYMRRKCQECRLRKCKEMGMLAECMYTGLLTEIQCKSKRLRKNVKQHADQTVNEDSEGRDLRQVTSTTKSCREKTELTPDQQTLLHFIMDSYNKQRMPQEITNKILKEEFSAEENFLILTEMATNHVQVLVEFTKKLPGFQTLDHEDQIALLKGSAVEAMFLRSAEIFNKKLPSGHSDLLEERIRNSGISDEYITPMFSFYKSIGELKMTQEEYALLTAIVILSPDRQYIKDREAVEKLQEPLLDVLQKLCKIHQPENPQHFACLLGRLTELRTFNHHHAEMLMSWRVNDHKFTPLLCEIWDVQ

[29] = tested on: Mus musculus; test: Anti-NASH activity in GAN diet-induced […] mouse assessed as reduction of sphinogo-myelin level in serum administered orally for 12 weeks; type: functional, organism-based; details: route po
[30] = species: Mus musculus; test: Anti-NASH activity in HFMCD diet-induced […] mouse assessed as decrease in collagen deposition by Sirius red staining based analysis; type: functional, organism-based

CCCC(=O)O[C@@H]1CC[C@]2(C)[C@H]3CC[C@@H]4[C@H]5[C@H](C(C)C)CC[C@]5(C(=O)NCC(=O)O)CC[C@@]4(C)[C@]3(C)CC[C@H]2C1(C)C
Activity [1]: Active
Activity [2]: Active
Activity [3]: Active
Activity [4]: Active
Activity [5]: Active
Activity [6]: Active
Activity [7]: Active
Activity [8]: Active
Activity [9]: Active
Activity [10]: Active
Activity [11]: Active
Activity [12]: Active
Drug uptake [13]: Active
Activity [14]: Active
Activity [15]: Active
Activity [16]: Active
Activity [17]: Active
Activity [18]: Active
Activity [19]: Active
Activity [20]: Active
IC50 at 24 h [21]: > 100000 nM
Activity [22]: Active
Activity [23]: Active
Activity [24]: Active
Activity [25]: Active
Activity [26]: Active
Activity [27]: Active
IC50 [28]: 2100 nM
Activity [29]: Active
Activity [30]: Active
